{"source": "patent US20030180723A1", "about": "“Cloning of novel gene sequences expressed and repressed during winter dormancy in the apical buds of tea ( Camellia sinensis L. (O.) Kuntze) bush” (priority 2001, published 2003)", "test_system": "dormant apical buds of tea bush", "experiment": "Forced break of bud dormancy by GA3 on a winter-dormant tea bush", "type": "in vivo, Camellia sinensis L. (O.) Kuntze", "details": "out of 20 buds; 5 μM in 5% ethanol, applied onto each dormant bud with a paint brush at least 4 times on the same day, December; bud length and perimeter as indicator of growth", "method": "Above Example 6 identified 4 differentially expressed genes cloned by us. To further correlate these differentially expressed genes with the phenomenon of dormancy, the dormant bush during winter month was forced to break bud dormancy using a plant growth regulator gibberrellic acid (hereinafter referred to GA3). GA3 was dissolved in 5% ethanol to yield a final concetration of 5 μM. The solution was applied onto each dormant bud with the help of a paint brush at least 4 times on the same day during the month of December. Bud length and its perimeter was recorded regularly as an indicator of its growth. […] These were termed as forced ND apical buds. These were collected and stored as mentioned in Example 1 and used for the purpose of RNA isolation to be used in northern analysis.", "data": [{"smiles": "C=C1C[C@]23C[C@@]1(O)CC[C@H]2[C@@]12C=C[C@H](O)[C@@](C)(C(=O)O1)[C@H]2[C@@H]3C(=O)O", "note": "[GA3, gibberrellic acid]", "values": [{"measurement": "buds that showed increase in growth (dormancy break)", "result": 10, "unit": "buds"}]}]}
